The target in this test is Full length KDM2B (Homo sapiens (Human), UniProt Q8NHM5). As to the kind of experiment: KDM2B TR-FRET assay for determining inhibitor IC50. Format: biochemical. The following applies: TR-FRET (HTRF), biotin-H3K36me2 peptide substrate, 2-OG 0.3 μM or 6 μM. An excerpt:
KDM2B TR-FRET Assay for Determining Inhibitor IC50
The KDM2B TR-FRET Assay described above represents an additional embodiment of the invention.
(Time-resolved FRET reads energy transfer from a long-lived donor to a nearby acceptor.)

Where a name gives a salt, the structure may show the parent alone.

Chain of Full length KDM2B (Q8NHM5 whole entry): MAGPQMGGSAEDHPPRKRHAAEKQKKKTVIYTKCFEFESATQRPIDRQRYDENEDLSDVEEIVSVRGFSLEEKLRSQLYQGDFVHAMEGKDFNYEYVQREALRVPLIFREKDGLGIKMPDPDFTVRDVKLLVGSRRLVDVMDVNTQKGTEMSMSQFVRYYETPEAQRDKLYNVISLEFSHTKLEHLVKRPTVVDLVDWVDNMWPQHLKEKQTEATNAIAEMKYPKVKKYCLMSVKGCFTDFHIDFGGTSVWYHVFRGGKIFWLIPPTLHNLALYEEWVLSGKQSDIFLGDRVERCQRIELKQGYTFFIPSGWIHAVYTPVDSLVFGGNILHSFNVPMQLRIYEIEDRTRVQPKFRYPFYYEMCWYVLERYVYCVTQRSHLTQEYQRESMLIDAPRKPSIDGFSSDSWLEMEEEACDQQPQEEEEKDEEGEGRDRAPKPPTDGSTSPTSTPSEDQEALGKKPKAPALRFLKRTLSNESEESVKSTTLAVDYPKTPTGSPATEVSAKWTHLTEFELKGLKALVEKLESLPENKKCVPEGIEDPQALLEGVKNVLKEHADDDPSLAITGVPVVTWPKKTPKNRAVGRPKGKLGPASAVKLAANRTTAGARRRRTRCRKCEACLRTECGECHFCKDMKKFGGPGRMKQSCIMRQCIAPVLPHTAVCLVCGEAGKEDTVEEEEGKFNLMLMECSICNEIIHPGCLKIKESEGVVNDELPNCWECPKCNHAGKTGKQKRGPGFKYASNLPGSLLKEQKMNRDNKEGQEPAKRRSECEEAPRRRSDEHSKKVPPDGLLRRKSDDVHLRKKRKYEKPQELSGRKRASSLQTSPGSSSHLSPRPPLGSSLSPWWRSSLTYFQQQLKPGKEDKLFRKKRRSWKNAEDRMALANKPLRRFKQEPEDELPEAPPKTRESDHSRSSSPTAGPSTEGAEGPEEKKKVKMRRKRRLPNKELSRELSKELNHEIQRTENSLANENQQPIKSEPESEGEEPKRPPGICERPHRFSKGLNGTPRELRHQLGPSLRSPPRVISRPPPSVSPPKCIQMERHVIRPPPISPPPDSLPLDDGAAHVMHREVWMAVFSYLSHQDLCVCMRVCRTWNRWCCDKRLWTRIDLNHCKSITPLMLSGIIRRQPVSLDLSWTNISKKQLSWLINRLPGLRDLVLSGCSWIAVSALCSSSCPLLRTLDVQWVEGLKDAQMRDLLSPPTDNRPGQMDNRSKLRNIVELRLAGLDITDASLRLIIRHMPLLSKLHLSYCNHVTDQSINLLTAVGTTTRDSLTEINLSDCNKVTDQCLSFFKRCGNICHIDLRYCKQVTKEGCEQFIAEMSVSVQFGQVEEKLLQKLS

Broadly, the IC50 is the midpoint of a concentration-inhibition curve. In turn, `O=C(c1ccc(-c2ccccn2)cc1)C1CCCN(CC2CC2)C1` (stereo not drawn) [Example 38, [1-(cyclopropylmethyl)-3-piperidyl]-[4-(2-pyridyl)phenyl]methanone] came in with an IC50 of 596 nM. In turn, `COc1ccc2cc(C(=O)[C@@H]3CCCN(C4CCCC4)C3)ccc2c1` [Example 9, [(3R)-1-cyclopentyl-3-piperidyl]-(6-methoxy-2-naphthyl)methanone] had an IC50 of 3000 nM. `COc1ccc2cc(C(=O)C3CCCN(CC4CC4)C3)ccc2c1CO` (stereo not drawn) [Example 188, (1-(cyclopropylmethyl)piperidin-3-yl)(5-(hydroxymethyl)-6-methoxynaphthalen-2-yl)methanone hydrochloride]: the IC50 came out at 133 nM. Compound `O=C(c1ccc(Oc2ccccc2)cc1)[C@@H]1CCCN(CC2CC2)C1` [Example 30, [(3R)-1-(cyclopropylmethyl)-3-piperidyl]-(4-phenoxyphenyl)methanone] displayed an IC50 of 5900 nM. In the case of `COc1ccc2cc(C(=O)C3CN(C4CCC4)CCN3C)ccc2c1` (stereo not drawn) [Example 194, (4-cyclobutyl-1-methyl-piperazin-2-yl)-(6-methoxy-2-naphthyl)methanone], half-maximal inhibition (IC50) required 1700 nM. For `CCCC1CCN(C2CCC2)CC1C(=O)c1ccc2cc(OC)ccc2c1` (single isomer, unassigned) [Example 140a, (1-cyclobutyl-4-propylpiperidin-3-yl)(6-methoxynaphthalen-2-yl)methanone] the value was 310 nM; for `O=C(c1cccc(Cl)c1)[C@@H]1CCCN(CC2CC2)C1` (stereo in doubt) [Example 118a, (3-chlorophenyl)(1-(cyclopropylmethyl)piperidin-3-yl)methanone], 6800 nM.

Consider `COc1cccc2cc(C(=O)[C@@H]3CN(CC4CC4)CC[C@@H]3C)ccc12` (single isomer, unassigned) [Example 136b, (1-(cyclopropylmethyl)-4-methylpiperidin-3-yl)(5-methoxynaphthalen-2-yl)methanone], for which the IC50 was found to be 1200 nM. `O=C(Nc1ccc2cc(C(=O)C3CCCN(CC4CC4)C3)ccc2c1)C1CC1` (stereo not drawn) [Example 175]: the IC50 turned out to be 355 nM. `CCCN1CCCC(C(=O)c2ccc3c(cnn3C)c2)C1` (stereo not drawn) [Example 94, (1-methylindazol-5-yl)-(1-propyl-3-piperidyl)methanone] displayed an IC50 of 122 nM. For `NC(=O)c1cc(C(=O)C2CCCN(C3CCCC3)C2)cc2ccccc12` (stereo not drawn) [Example 46, 3-(1-cyclopentylpiperidine-3-carbonyl)naphthalene-1-carboxamide] the value was 209 nM. `COc1ccc2cc(C(=O)C3CN(C4CCC4)CCN3Cc3ccc(C#N)cc3)ccc2c1` (stereo not drawn) [Example 199, 4-[[4-cyclobutyl-2-(6-methoxynaphthalene-2-carbonyl)piperazin-1-yl]methyl]benzonitrile] came in with an IC50 of 30.9 nM.

Regarding `COc1ccc2cc(C(=O)C3CCCN(C4CC(C#N)C4)C3)ccc2c1` (stereo not drawn) [Example 65, 3-[3-(6-methoxynaphthalene-2-carbonyl)-1-piperidyl]cyclobutanecarbonitrite], inhibition was half-maximal at 309 nM (IC50). On to `COc1ccc2cc(C(=O)C3CN(C4CCC4)CCN3Cc3ccc(C)cc3)ccc2c1` (stereo not drawn) [Example 196, [4-cyclobutyl-1-(p-tolylmethyl)piperazin-2-yl]-(6-methoxy-2-naphthyl)methanone], for which the midpoint of inhibition, the IC50, lay at 138 nM. For `COc1cccc2cc(C(=O)C3CN(CC4CC4)CCC3C)ccc12` (single isomer, unassigned) [Example 136a, (1-(cyclopropylmethyl)-4-methylpiperidin-3-yl)(5-methoxynaphthalen-2-yl)methanone] the value was 41.4 nM; for `C[C@@H]1CCN(C2CCCC2)C[C@H]1C(=O)c1ccc2cc(C#N)ccc2c1` (stereo in doubt) [Example 162b, 6-(1-cyclopentyl-4-methylpiperidine-3-carbonyl)-2-naphthonitrile], 85.7 nM; for `COc1ccc2cc(C(=O)C3CCCN(C4CCCC4)C3)ccc2c1C` (stereo not drawn) [Example 51, (1-cyclopentyl-3-piperidyl)-(6-methoxy-5-methyl-2-naphthyl)methanone], 118 nM. For `CC1CCN(CC2CC2)CC1C(=O)c1ccc2c(O)cccc2c1` (single isomer, unassigned) [Example 151b, (1-(cyclopropylmethyl)-4-methylpiperidin-3-yl)(5-hydroxynaphthalen-2-yl)methanone] the value was 39.5 nM; for `COc1cccc2cc(C(=O)C3CCCN(CC4CC4)C3)ccc12` (stereo not drawn) [Example 114, (1-(cyclopropylmethyl)piperidin-3-yl)(5-methoxynaphthalen-2-yl)methanone], 220 nM. With `COc1ccc2cc(C(=O)C3CCCN(CC4CCC4)C3)ccc2c1` (stereo not drawn) [Example 69, [1-(cyclobutylmethyl)-3-piperidyl]-(6-methoxy-2-naphthyl)methanone], the IC50 was 150 nM.

`COc1ccc2cc(C(=O)[C@H]3CN(C4CCC4)CC[C@H]3C(C)C)ccc2c1CC#N` (stereo in doubt) [Example 186b, 2-(6-(1-cyclobutyl-4-isopropylpiperidine-3-carbonyl)-2-methoxynaphthalen-1-yl)acetonitrile] gave an IC50 of 2.12 nM. Consider `COc1ccc2cc(C(=O)[C@H]3CCCN(CC4CC4)C3)ccc2c1` [Example 8, [(3S)-1-(cyclopropylmethyl)-3-piperidyl]-(6-methoxy-2-naphthyl)methanone], for which inhibition was half-maximal at 2700 nM (IC50).

Compound `COc1ccc2cc(C(=O)C3CC(O)CN(CC4CC4)C3)ccc2c1` (stereo not drawn) [Example 155, (1-(cyclopropylmethyl)-5-hydroxypiperidin-3-yl)(6-methoxynaphthalen-2-yl)methanone] yielded an IC50 of 779 nM. Consider `COc1ccc2cc(C(=O)[C@H]3CN(C4CCC4)CC[C@H]3C(C)C)ccc2c1` (single isomer, unassigned) [Example 143b, (1-cyclobutyl-4-isopropylpiperidin-3-yl)(6-methoxynaphthalen-2-yl)methanone], for which the IC50 was found to be 15.9 nM. Regarding `COc1ccc2cc(C(=O)C3CN(CC4CC4)CCC3OC)ccc2c1` (single isomer, unassigned) [Example 146b, (1-(cyclopropylmethyl)-4-methoxypiperidin-3-yl)(6-methoxynaphthalen-2-yl)methanone], half-maximal inhibition (IC50) was put at 129 nM. For `CCCN1CCCC(C(=O)c2ccccc2OC)C1` (stereo not drawn) [Example 99, (2-methoxyphenyl)-(1-propyl-3-piperidyl)methanone] the value was 5500 nM; for `CCCN1CC[C@H](C)[C@@H](C(=O)c2ccc3cc(C#N)ccc3c2)C1` (stereo in doubt) [Example 163a, 6-(4-methyl-1-propylpiperidine-3-carbonyl)-2-naphthonitrile], 993 nM; for `CCCN1CC[C@@H](C)[C@H](C(=O)c2ccc3cc(C#N)ccc3c2)C1` (stereo in doubt) [Example 163b, 6-(4-methyl-1-propylpiperidine-3-carbonyl)-2-naphthonitrile], 45.4 nM. Turning to `N#Cc1cc(C(=O)C2CCCN(CC3CC3)C2)cc2ccccc12` (stereo not drawn) [Example 43, 3-[1-(cyclopropylmethyl)piperidine-3-carbonyl]naphthalene-1-carbonitrile], the IC50 turned out to be 143 nM.

As to `COc1ccc2cc(C(=O)C3CN(C4CCC4)CCN3Cc3cccc(C(F)(F)F)c3)ccc2c1` (stereo not drawn) [Example 198, [4-cyclobutyl-1-[[3-(trifluoromethyl)phenyl]methyl]piperazin-2-yl]-(6-methoxy-2-naphthyl)methanone], half-maximal inhibition (IC50) required 302 nM. `COc1ccc2cc(C(=O)[C@@]3(O)CCCN(CC4CC4)C3)ccc2c1` (stereo in doubt) [Example 158a, (1-(cyclopropylmethyl)-3-hydroxypiperidin-3-yl)(6-methoxynaphthalen-2-yl)methanone] gave an IC50 of 1900 nM. With `COc1ccc2cc(C(=O)C3CN(C4CCC4)CCN3Cc3ccccc3C#N)ccc2c1` (stereo not drawn) [Example 195, 2-[[4-cyclobutyl-2-(6-methoxynaphthalene-2-carbonyl)piperazin-1-yl]methyl]benzonitrile] the figure was 176 nM; with `O=C(c1cccc(Cl)c1)[C@H]1CCCN(CC2CC2)C1` (stereo in doubt) [Example 118b, (3-chlorophenyl)(1-(cyclopropylmethyl)piperidin-3-yl)methanone], 661 nM; with `Cn1ccc2ccc(C(=O)C3CCCN(CC4CC4)C3)cc21` (stereo not drawn) [Example 119, (1-(cyclopropylmethyl)piperidin-3-yl)(1-methyl-1H-indol-6-yl)methanone], 2300 nM. `O=C(c1cccc(Cl)c1)C1CCCN(C2CCCC2)C1` (stereo not drawn) [Example 3, (3-chlorophenyl)-(1-cyclopentyl-3-piperidyl)methanone] registered an IC50 of 23000 nM.

In turn, `CC1CCN(CC2CC2)CC1C(=O)c1ccc2c(O)cccc2c1` (single isomer, unassigned) [Example 151a, (1-(cyclopropylmethyl)-4-methylpiperidin-3-yl)(5-hydroxynaphthalen-2-yl)methanone] came in with an IC50 of 315 nM. On to `O=C(c1ccc(C(F)(F)F)cc1)C1CCCN(CC2CC2)C1` (stereo not drawn) [Example 22, [1-(cyclopropylmethyl)-3-piperidyl]-[4-(trifluoromethyl)phenyl]methanone], for which 1400 nM corresponded to half-maximal inhibition (IC50). The compound `Cc1cccc2ccc(C(=O)C3CCCN(C4CCCC4)C3)cc12` (stereo not drawn) [Example 61, (1-cyclopentyl-3-piperidyl)-(8-methyl-2-naphthyl)methanone] came in with an IC50 of 174 nM.

`O=C(c1cc(CO)c2ccccc2c1)C1CCCN(C2CCC2)C1` (stereo not drawn) [Example 58, (1-cyclobutyl-3-piperidyl)-[4-(hydroxymethyl)-2-naphthyl]methanone] came in with an IC50 of 47.6 nM.

Values taken from patent US10280149B2, “Therapeutic compounds and uses thereof” (GENENTECH, INC., priority 2015, dated 2019).
